Measured values: US20170274014A1, “COMBINATIONS OF LOW, IMMUNE ENHANCING, DOSES OF MTOR INHIBITORS AND CARS” (Novartis AG, priority 2014, published 2017)

Experiments:
PI3K/mTOR = conditions: relatively higher concentrations; cited from earlier work
mTOR = mTOR (Homo sapiens, UniProt P42345); conditions: low concentration; cited from earlier work
[1] = mice; cited from earlier work
influenza vaccination = conditions: elderly mice, 6 weeks of treatment; cited from earlier work
influenza = conditions: mice vaccinated against influenza in the presence of rapamycin; cited from earlier work
[2] = old mice; cited from earlier work
[3] = test system: NFAT inducible promoter driven luciferase activity; assay type: cell-based; conditions: PDL1-Fc coated plate as compared to control treatment by IgG1-Fc; Jurkat JNL cells
Procedure: Jurkat cells with NFAT-LUC reporter (JNL) were grown to the density of 0.5×10^6/ml in Jurket cell growth media with puromycin at 0.5 μg/ml. For each transfection 3×10^6 cells were spin down at 100 g for 10 minutes. Four μg DNA per construct were used per transfection. Amaxa Nucleofector solution V and supplement I was mixed and 100 μl was added into the tube with DNA construct. The mixture was then added to the cells and transferred to the electroporation cuvette. Electroporation was done under setting X-001 using Amaxa Nucleofector II Device. 0.5 ml of growth media was added immediately after electroporation and the mixture were transferred into 2 ml growth media in one well of the 6-well plate. After two hours, the rapalogue compound at various concentrations was added to cells. The cells were applied to tissue culture plate wells that were coated by the target. Tissue culture plate was coated with 5 μg/ml of PDL1-Fc or IgG1-Fc or any target for 2 hrs at 37° C., then blocked with the blocking buffer (DPBS with 5% serum) for 30 minutes. The transfected cells were added to the target plate with 100 μl per well and incubated further for 16 hrs. Luciferase One Glo reagent 100 μl was added per well. The samples were incubated for 5 min at 37° C. and then luminescence is measured using Envision plate reader.

Compound: Cn1c(=O)n(-c2ccc(C(C)(C)C#N)cc2)c2c3cc(-c4cnc5ccccc5c4)ccc3ncc21 [BEZ235, 2-methyl-2-[4-(3-methyl-2-oxo-8-quinolin-3-yl-2,3-dihydro-imidazo[4,5-c]quinolin-1-yl)-phenyl]-propionitrile]
- concentration giving dual PI3K/mTOR inhibition (PI3K/mTOR): approximately 500 nmol/L
- concentration at which mTOR inhibition predominates (mTOR): less than 100 nmol/L

Compound: CO[C@H]1C[C@@H]2CC[C@@H](C)[C@@](O)(O2)C(=O)C(=O)N2CCCC[C@H]2C(=O)O[C@H]([C@H](C)C[C@@H]2CC[C@@H](O)[C@H](OC)C2)CC(=O)[C@H](C)/C=C(\C)[C@@H](O)[C@@H](OC)C(=O)[C@H](C)C[C@H](C)/C=C/C=C/C=C/1C [rapamycin]
- Lifespan [1]: extend lifespan
- Response to influenza vaccination (influenza vaccination): improved response to influenza vaccination
- Serologic response to influenza as compared to placebo (influenza): broader serologic response
- Spontaneous physical activity [2]: increases spontaneous physical activity

Compound: PD1 CAR: CAR construct PD1-ECD-TM-4-1BB-CD3zeta, SEQ ID NO: 26
- Activation of NFAT inducible promoter driven luciferase activity [3]: significant PD1 induced activation
